The assay deals with T1, integrin α4β1 (very late activation antigen-4, VLA-4) (Homo sapiens, UniProt P05556+P13612).
T1 construct: gene ITGA4; endogenous integrin on Jurkat cells; with integrin β1 (ITGB1)
The experiment in a line: static adhesion of Jurkat cells to VCAM-1; blocked by anti-α[…] or anti-β[…] mAb. The format is cell-based.

A word on the EC50: it is the concentration at which the effect is half-maximal.

T1 sequence (P13612 34-1032): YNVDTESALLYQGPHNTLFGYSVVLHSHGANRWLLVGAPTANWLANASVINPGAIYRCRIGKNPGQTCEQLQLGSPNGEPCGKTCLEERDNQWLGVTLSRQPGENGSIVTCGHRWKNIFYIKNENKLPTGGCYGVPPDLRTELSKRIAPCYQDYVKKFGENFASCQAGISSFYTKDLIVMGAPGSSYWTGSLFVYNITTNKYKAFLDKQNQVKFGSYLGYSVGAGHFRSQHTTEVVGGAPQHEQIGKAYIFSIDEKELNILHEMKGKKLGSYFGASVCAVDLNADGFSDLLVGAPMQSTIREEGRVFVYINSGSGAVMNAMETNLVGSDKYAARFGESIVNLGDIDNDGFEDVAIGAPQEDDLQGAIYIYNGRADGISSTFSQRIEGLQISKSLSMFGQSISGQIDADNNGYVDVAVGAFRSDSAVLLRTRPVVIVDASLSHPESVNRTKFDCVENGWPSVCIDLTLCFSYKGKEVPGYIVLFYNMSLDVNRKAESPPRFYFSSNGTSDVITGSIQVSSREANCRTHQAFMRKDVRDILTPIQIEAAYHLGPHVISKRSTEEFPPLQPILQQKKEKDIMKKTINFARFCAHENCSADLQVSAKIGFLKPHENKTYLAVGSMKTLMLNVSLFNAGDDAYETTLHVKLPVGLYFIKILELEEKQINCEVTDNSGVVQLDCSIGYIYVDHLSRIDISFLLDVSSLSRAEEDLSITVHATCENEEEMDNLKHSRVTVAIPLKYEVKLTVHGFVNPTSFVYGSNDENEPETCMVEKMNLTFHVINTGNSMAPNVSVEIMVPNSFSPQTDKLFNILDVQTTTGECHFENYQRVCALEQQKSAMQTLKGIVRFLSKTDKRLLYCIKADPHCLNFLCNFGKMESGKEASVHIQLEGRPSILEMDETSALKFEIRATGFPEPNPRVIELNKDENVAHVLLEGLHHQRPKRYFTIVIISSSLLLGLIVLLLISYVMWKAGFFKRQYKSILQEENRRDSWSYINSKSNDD
T1 sequence (P05556 21-798): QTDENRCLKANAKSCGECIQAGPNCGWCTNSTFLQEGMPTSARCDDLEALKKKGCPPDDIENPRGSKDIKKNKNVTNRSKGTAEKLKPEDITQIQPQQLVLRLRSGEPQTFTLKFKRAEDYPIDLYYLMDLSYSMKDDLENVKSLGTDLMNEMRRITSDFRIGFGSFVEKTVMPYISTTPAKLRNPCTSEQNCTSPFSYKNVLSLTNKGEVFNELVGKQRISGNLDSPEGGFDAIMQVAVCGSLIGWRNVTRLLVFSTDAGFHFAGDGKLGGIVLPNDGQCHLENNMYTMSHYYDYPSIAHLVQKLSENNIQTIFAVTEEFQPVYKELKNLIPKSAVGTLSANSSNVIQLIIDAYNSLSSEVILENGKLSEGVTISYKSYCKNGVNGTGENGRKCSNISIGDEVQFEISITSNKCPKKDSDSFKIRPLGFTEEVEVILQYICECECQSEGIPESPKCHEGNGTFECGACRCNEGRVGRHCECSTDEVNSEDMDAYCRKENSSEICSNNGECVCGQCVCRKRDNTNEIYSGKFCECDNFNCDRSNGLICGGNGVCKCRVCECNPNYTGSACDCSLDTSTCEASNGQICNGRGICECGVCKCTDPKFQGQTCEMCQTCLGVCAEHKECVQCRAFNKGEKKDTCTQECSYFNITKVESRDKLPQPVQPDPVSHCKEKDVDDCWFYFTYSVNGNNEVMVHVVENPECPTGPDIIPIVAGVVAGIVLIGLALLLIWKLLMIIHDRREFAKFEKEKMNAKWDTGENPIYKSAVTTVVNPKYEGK

As to `O=C(OCCOCCOCCOC(=O)N(Cc1cccs1)Cc1cccs1)N(Cc1cccs1)Cc1cccs1` [7HP349], the half-maximal effective concentration (EC50) was found to be 2000 nM.
